Broadly, the IC50 is the midpoint of a concentration-inhibition curve.

Drawing on patent US11034661B2, “Substituted N′-hydroxycarbamimidoyl-1,2,5-oxadiazole compounds as indoleamine 2,3-dioxygenase IDO inhibitors” (Merck Sharp & Dohme Corp., priority 2017, dated 2021), this text covers IC50 for 19 compounds.

The target of one test is HIS-tagged IDO1 protein (Homo sapiens (Human), UniProt P14902). Nature of the test: IDO1 Enzyme Assay. It is filed as biochemical. The conditions noted are these: recombinant IDO1 40 nM, tryptophan substrate, fluorescence readout. How it is done: Biological Assays IDO1 Enzyme Assay
Compounds to be tested were serially diluted in ten 3-fold steps in DMSO starting from 10 mM DMSO stocks. Compound dilutions or DMSO alone were then dispensed from the dilution plate into a Greiner black 384-well assay plate (catalog #781086) using an Echo 555 acoustic liquid handler (Labcyte).
HIS-tagged IDO1 protein was recombinantly expressed in Escherichia coli using ZYP5052 autoinduction media supplemented with 500 μM delta aminolevulinic acid for 48 hours at 16 degrees Celsius. IDO1 protein was purified using Ni^2+-affinity resin and size exclusion chromatography. Purified protein was then diluted in assay buffer (50 mM Tris pH 7.0, 1% glycerol, 20 μM methylene blue, 0.05% Tween-20, 20 mM sodium ascorbate, 100 units/mL catalase to obtain a final IDO1 concentration of 40 nM. IDO1 solution […] or buffer alone […] was dispensed to wells of the assay plate using a BioRAPTR liquid dispenser (Beckman Coulter). Assay plates containing compound and IDO1 enzyme were incubated at room temperature for 30 minutes. Afterwards, 10 μL of 400 μM tryptophan in assay buffer were added to each well of the assay plate using a BioRAPTR liquid dispenser. Plates were incubated at room temperature for 60 minutes and reactions were quenched by addition of 10 μL of 0.5 M methyl isonipecotate in dimethyl sulfoxide. Plates were sealed and incubated at 37 degrees Celsius for 4 hours or 50 degrees Celsius for 2 hours. The plates are allowed to cool and then centrifuged for 1 minute at 1000×g. The resulting fluorescence was measured in an Envision plate reader (Perkin Elmer) with a 400/25 nm excitation filter and an 510/20 nm emission filter.
Potencies were calculated by linear least squares fit to the four parameter logistic IC50 equation.

Test [1] addresses IDO1 in Hela cells stimulated with IFNγ (Homo sapiens (Human), UniProt P14902). Nature of the test: IDO1 Cellular Assay in Hela Cells Stimulated with IFNγ. It is filed as cell-based. Particulars: IFNγ 100 ng/mL, about 48 hours, fluorescence readout, read-out: IDO1 HELA Cell Assay, IC50. The method, then:
IDO1 Cellular Assay in Hela Cells Stimulated with IFNγ
Hela cells were cultured in complete Hela culture medium (90% EMEM, 10% heat-inactivated fetal bovine serum) and expanded to about 1×10^9 cells. The cells were then collected and frozen down at 10×10^6 cells/vial in 1 mL frozen medium (90% complete Hela culture medium, 10% DMSO)
Compounds to be tested were serially diluted in ten 3-fold steps in DMSO starting from 10 mM DMSO stocks in Echo low volume plate(s). Compound dilutions or DMSO alone were then dispensed from the dilution plate(s) into Greiner black 384-well assay plate(s) (catalog #781086, 50 nL/well) using an Echo 550 acoustic liquid handler (Labcyte).
Frozen Hela cells were thawed and transferred into Hela assay medium (99% complete Hela culture medium, 1% Pen/Strep) with 20 mL medium/vial of cells. The cells were spun down at 250 g in a table top centrifuge for 5 min and suspended in same volume of Hela assay medium. The cells were then counted and adjusted to a density of 2×10^5 cells/ml in Hela assay medium. Sterile L-tryptophan were added to the cells with final concentration of 300 uM L-tryptophan. A small aliquot (2 mL/plate) of Hela cells were set aside and were not treated with IFNγ, to serve as the Max-E control. The rest of Hela cells were added with sterile IFNγ (Cat #285-IF, R & D systems) with a final concentration of 100 ng/mL.
Hela cells with and without IFNγ were dispensed to the respective wells of 384-well assay plates containing the compounds. The plates were incubated for about 48 hours at a 37° C., 5% CO2 incubator. Afterwards, 12 μL of 0.5 M methyl isonipecotate in dimethyl sulfoxide were added into each well and the plates were sealed and incubated at 37° C. without CO2 overnight. The plates were centrifuged for 1 min at 200×g. The resulting fluorescence was measured in a Spectramax plate reader (Molecular Devices) with a 400 nm excitation filter and a 510 nm emission filter.
The fluorescence intensity of each well was corrected for the background observed in wells with non-IFNγ-treated cells and was expressed as a fraction of the intensity observed in wells of IFNγ-treated cells and DMSO only. Potencies were calculated by linear least squares fit to the four parameter logistic IC50 equation.

Chain of IDO1 in Hela cells stimulated with IFNγ (P14902 whole entry): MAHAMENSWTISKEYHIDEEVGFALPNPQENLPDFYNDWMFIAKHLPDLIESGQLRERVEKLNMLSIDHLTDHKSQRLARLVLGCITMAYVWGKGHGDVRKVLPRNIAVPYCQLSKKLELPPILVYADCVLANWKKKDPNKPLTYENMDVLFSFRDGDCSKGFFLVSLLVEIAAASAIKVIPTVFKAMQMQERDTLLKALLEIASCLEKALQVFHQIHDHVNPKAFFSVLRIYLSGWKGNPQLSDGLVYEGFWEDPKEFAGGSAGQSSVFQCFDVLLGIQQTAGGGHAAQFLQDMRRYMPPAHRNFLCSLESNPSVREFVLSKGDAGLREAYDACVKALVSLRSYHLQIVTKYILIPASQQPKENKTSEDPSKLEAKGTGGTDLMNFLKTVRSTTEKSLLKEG
Chain of HIS-tagged IDO1 protein (P14902 whole entry): as above

As for `CC(C)(Oc1nonc1/C(=N/O)NC1Cc2ccc(F)cc21)C(=O)NCCO` (centres unmarked) [Example 19, 2-({4-[N-(4-fluorobicyclo[4.2.0]octa-1,3,5-trien-7-yl)-N′-hydroxycarbamimidoyl]-1,2,5-oxadiazol-3-yl}oxy)-N-(2-hydroxyethyl)-2-methylpropanamide], the IC50 at HIS-tagged IDO1 protein turned out to be 7790 nM; in test [1], 2850 nM.

Turning to `O=C(COc1nonc1/C(=N/O)N[C@H]1Cc2ccc(F)cc21)NC[C@@H](O)CO` [Example 16, N-[(2R)-2,3-dihydroxypropyl]-2-[(4-{N-[(7S)-4-fluorobicyclo[4.2.0]octa-1,3,5-trien-7-yl]-N′-hydroxycarbamimidoyl}-1,2,5-oxadiazol-3-yl)oxy]acetamide], the IC50 at HIS-tagged IDO1 protein amounted to 447 nM; in test [1], 509 nM.

For `C[C@@H](O)CNC(=O)COc1nonc1/C(=N/O)N[C@H]1Cc2ccc(F)cc21` [Example 10, 2-[(4-{N-[(7S)-4-fluorobicyclo[4.2.0]octa-1,3,5-trien-7-yl]-N′-hydroxycarbamimidoyl}-1,2,5-oxadiazol-3-yl)oxy]-N-[(2R)-2-hydroxypropyl]acetamide], the figures for the IC50 (on HIS-tagged IDO1 protein; in test [1]) were 100 nM and 335 nM, respectively.

Take `O=C(NCCOc1nonc1/C(=N/O)N[C@H]1Cc2ccc(F)cc21)[C@H](O)CO` [Example 20, (2R)-N-{2-[(4-{N-[(7S)-4-fluorobicyclo[4.2.0]octa-1,3,5-trien-7-yl]-N′-hydroxycarbamimidoyl}-1,2,5-oxadiazol-3-yl)oxy]ethyl}-2,3-dihydroxypropanamide]: the IC50 at HIS-tagged IDO1 protein was 302 nM; in test [1], 2360 nM.

For the compound `CC(C)(O)CNC(=O)COc1nonc1/C(=N/O)NC1Cc2ccc(F)cc21` (centres unmarked) [Example 14, 2-({4-[N-(4-fluorobicyclo[4.2.0]octa-1,3,5-trien-7-yl)-N′-hydroxycarbamimidoyl]-1,2,5-oxadiazol-3-yl}oxy)-N-(2-hydroxy-2-methylpropyl)acetamide], the IC50 on HIS-tagged IDO1 protein turned out to be 985 nM; in test [1], 770 nM.

As for `NC(=O)N(CCO)CCOc1nonc1/C(=N/O)NC1Cc2ccc(F)cc21` (centres unmarked) [Example 15, 4-{2-[carbamoyl(2-hydroxyethyl)amino]ethoxy}-N-(4-fluorobicyclo[4.2.0]octa-1,3,5-trien-7-yl)-N′-hydroxy-1,2,5-oxadiazole-3-carboximidamide], the values for the IC50 (on HIS-tagged IDO1 protein; in test [1]) were 479 nM and 685 nM, respectively.

For `NS(=O)(=O)NCCOc1nonc1/C(=N/O)N[C@H]1CCc2ccc(F)cc21` [Example 24, N-[(1S)-6-fluoro-2,3-dihydro-1H-inden-1-yl]-N′-hydroxy-4-[2-(sulfamoylamino)ethoxy]-1,2,5-oxadiazole-3-carboximidamide], the IC50 turned out to be 421 nM on HIS-tagged IDO1 protein and 1300 nM in test [1].

Turning to `O=C(CO)N1CCC(Oc2nonc2/C(=N/O)N[C@H]2Cc3ccc(F)cc32)CC1` [Example 50, N-[(7S)-4-fluorobicyclo[4.2.0]octa-1,3,5-trien-7-yl]-N′-hydroxy-4-{[1-(hydroxyacetyl)piperidin-4-yl]oxy}-1,2,5-oxadiazole-3-carboximidamide], the results for the IC50 (on HIS-tagged IDO1 protein; in test [1]) were 516 nM and 822 nM, respectively.

As to `CS(=O)(=O)CCOc1nonc1/C(=N/O)N[C@H]1Cc2ccc(F)cc21` [Example 27, N-[(7S)-4-fluorobicyclo[4.2.0]octa-1,3,5-trien-7-yl]-N′-hydroxy-4-[2-(methylsulfonyl)ethoxy]-1,2,5-oxadiazole-3-carboximidamide], the IC50 on HIS-tagged IDO1 protein was 1480 nM; in test [1], 1330 nM.

Turning to `NS(=O)(=O)N1CC(Oc2nonc2/C(=N/O)N[C@H]2Cc3ccc(F)cc32)C1` [Example 62, (S,Z)-N-(4-fluorobicyclo[4.2.0]octa-1(6),2,4-trien-7-yl)-N′-hydroxy-4-((1-sulfamoylazetidin-3-yl)oxy)-1,2,5-oxadiazole-3-carboximidamide], the IC50 is 24 nM at HIS-tagged IDO1 protein and 44 nM in test [1].

Regarding `O=C(COc1nonc1/C(=N/O)N[C@H]1Cc2ccc(F)cc21)N1CC[C@H](O)C1` [Example 45, N-[(7S)-4-fluorobicyclo[4.2.0]octa-1,3,5-trien-7-yl]-N′-hydroxy-4-{2-[(3S)-3-hydroxypyrrolidin-1-yl]-2-oxoethoxy}-1,2,5-oxadiazole-3-carboximidamide], the IC50 on HIS-tagged IDO1 protein was 990 nM; in test [1], 1280 nM.

For `O=C(CO)N1CC(COc2nonc2/C(=N/O)N[C@H]2Cc3ccc(F)cc32)C1` [Example 59, N-[(7S)-4-fluorobicyclo[4.2.0]octa-1,3,5-trien-7-yl]-N′-hydroxy-4-{[1-(hydroxyacetyl)azetidin-3-yl]methoxy}-1,2,5-oxadiazole-3-carboximidamide], the IC50 is 364 nM at HIS-tagged IDO1 protein and 298 nM in test [1].

`CC(Oc1nonc1/C(=N/O)NC1Cc2ccc(F)cc21)C(=O)NCCO` (centres unmarked) [Example 23, 2-({4-[N-(4-fluorobicyclo[4.2.0]octa-1,3,5-trien-7-yl)-N′-hydroxycarbamimidoyl]-1,2,5-oxadiazol-3-yl}oxy)-N-(2-hydroxyethyl)propanamide]: the IC50 came to 1670 nM at HIS-tagged IDO1 protein and 1930 nM in test [1].

With `O=C(COc1nonc1/C(=N/O)N[C@H]1CCc2ccc(F)cc21)NCCO` [Example 13, 2-[(4-{N-[(1S)-6-fluoro-2,3-dihydro-1H-inden-1-yl]-N′-hydroxycarbamimidoyl}-1,2,5-oxadiazol-3-yl)oxy]-N-(2-hydroxyethyl)acetamide], the IC50 on HIS-tagged IDO1 protein was 483 nM; in test [1], 774 nM.

For `NS(=O)(=O)CCOc1nonc1/C(=N/O)N[C@H]1Cc2ccc(F)cc21` [Example 34, N-[(7S)-4-fluorobicyclo[4.2.0]octa-1,3,5-trien-7-yl]-N′-hydroxy-4-(2-sulfamoylethoxy)-1,2,5-oxadiazole-3-carboximidamide], the IC50 is 289 nM on HIS-tagged IDO1 protein and 870 nM in test [1].

`NS(=O)(=O)N1CCC(Oc2nonc2/C(=N/O)N[C@H]2Cc3ccc(F)cc32)CC1` [Example 49, N-[(7S)-4-fluorobicyclo[4.2.0]octa-1,3,5-trien-7-yl]-N′-hydroxy-4-[(1-sulfamoylpiperidin-4-yl)oxy]-1,2,5-oxadiazole-3-carboximidamide]: the IC50 was 10700 nM at HIS-tagged IDO1 protein and 7310 nM in test [1].

For `O=C(COc1nonc1/C(=N/O)NC1Cc2ccc(F)cc21)NCC(O)CO` (centres unmarked) [Example 12, N-(2,3-dihydroxypropyl)-2-({4-[N-(4-fluorobicyclo[4.2.0]octa-1,3,5-trien-7-yl)-N′-hydroxycarbamimidoyl]-1,2,5-oxadiazol-3-yl}oxy)acetamide], the IC50 on HIS-tagged IDO1 protein was 700 nM; in test [1] it was 920 nM.

For the compound `COC(=O)NCCOc1nonc1/C(=N/O)N[C@H]1Cc2ccc(F)cc21` [Example 41, methyl {2-[(4-{N-[(7S)-4-fluorobicyclo[4.2.0]octa-1,3,5-trien-7-yl]-N′-hydroxycarbamimidoyl}-1,2,5-oxadiazol-3-yl)oxy]ethyl}carbamate], the IC50 was found to be 141 nM on HIS-tagged IDO1 protein and 181 nM in test [1].

Regarding `NS(=O)(=O)CCCOc1nonc1/C(=N/O)N[C@H]1Cc2ccc(F)cc21` [Example 29, N-[(7S)-4-fluorobicyclo[4.2.0]octa-1,3,5-trien-7-yl]-N′-hydroxy-4-(3-sulfamoylpropoxy)-1,2,5-oxadiazole-3-carboximidamide], the IC50 on HIS-tagged IDO1 protein was 73.1 nM; in test [1], 147 nM.
